Like-named read-outs stand apart in the source and are kept apart here.
Experiments:
[1] = tested on: estrogen receptor; details: cited from earlier work
[2] = biological target: T1, aryl hydrocarbon receptor (AhR) (Rattus norvegicus, UniProt P41738); details: cited from earlier work; for Experimental Log EC50: rodent hepatic cytosol
T1 construct: rodent hepatic cytosol as a source of the AhR; from tissue; host or cells: rodent hepatic cytosol
T1 sequence (P41738 10-853): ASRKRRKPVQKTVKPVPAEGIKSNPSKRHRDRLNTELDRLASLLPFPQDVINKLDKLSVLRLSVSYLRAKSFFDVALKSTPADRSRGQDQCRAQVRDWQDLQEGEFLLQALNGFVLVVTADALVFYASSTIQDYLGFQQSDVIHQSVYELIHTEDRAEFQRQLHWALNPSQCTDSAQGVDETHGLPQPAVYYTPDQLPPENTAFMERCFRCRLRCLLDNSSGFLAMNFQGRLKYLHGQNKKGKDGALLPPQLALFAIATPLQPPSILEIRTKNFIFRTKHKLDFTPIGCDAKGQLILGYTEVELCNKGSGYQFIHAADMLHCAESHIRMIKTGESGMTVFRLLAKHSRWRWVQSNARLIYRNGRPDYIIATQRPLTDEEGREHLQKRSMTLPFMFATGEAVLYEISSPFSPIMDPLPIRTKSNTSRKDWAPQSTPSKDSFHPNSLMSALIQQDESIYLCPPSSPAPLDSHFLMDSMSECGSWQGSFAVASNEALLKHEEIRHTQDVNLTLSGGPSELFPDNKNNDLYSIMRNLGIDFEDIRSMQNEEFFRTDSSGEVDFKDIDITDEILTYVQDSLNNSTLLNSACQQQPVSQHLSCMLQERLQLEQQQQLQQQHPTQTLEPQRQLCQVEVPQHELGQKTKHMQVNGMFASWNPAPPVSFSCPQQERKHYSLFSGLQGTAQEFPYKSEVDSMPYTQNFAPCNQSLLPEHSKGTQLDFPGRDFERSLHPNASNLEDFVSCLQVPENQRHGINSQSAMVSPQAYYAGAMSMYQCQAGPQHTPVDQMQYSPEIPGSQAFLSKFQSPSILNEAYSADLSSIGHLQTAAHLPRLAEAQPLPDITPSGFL

[3] = Minimum inhibitory concentration of cephalosporin antibiotics; assay type: cell-based; parameters: unit not given here
Excerpt: This example describes the application of the disclosed CoSCoSA methods to model the minimum inhibitory concentration of cephalosporin antibotics, using only the through-bond (COSY-type) connections between carbons and between carbons and nitrogens in their structures. Bin sizes of 3 ppm by 3 ppm for carbon to carbon bins were used, and 10 ppm by 3 ppm for the nitrogen to carbon bins. […] The structures of the cephalosporins used in the model are shown below.

[4] = parameters: unit not given here; details: Minimal Inhibitory Concentration; cited from earlier work
[5] = experimental values of Waller et al. and Kuiper et al. external test sets, normalized to NCTR data
[6] = log scale, competitive binding, [3H]-2,3,7,8-tetrachlorodioxin, previously reported training data
[7] = previously reported competitive in vitro AhR binding, [3H]-2,3,7,8-tetrachlorodioxin radioligand, values are log EC50

SMILES | Normalized log (RBA) [1, 5] | Experimental Log EC50 [2, 6] | Experimental Log EC50 [2, 7] | other results
Clc1ccc(Cl)c(-c2cc(Cl)ccc2Cl)c1 [2,2′5,5′-tetraCl-biphenyl] | −2.67 |  |  | 
Oc1c(Cl)cc(Cl)c(Cl)c1-c1cc(Cl)cc(Cl)c1Cl [2,2′,3,3′,5,5′-heaxCl-6′-biphenylol] | −2.69 |  |  | 
Oc1cc(Cl)c(-c2c(Cl)ccc(Cl)c2Cl)c(Cl)c1Cl [2,2′,3,3′,6,6′-hexaCl-4-biphenylol] | −2.74 |  |  | 
Oc1cc(Cl)c(-c2c(Cl)cc(Cl)cc2Cl)c(Cl)c1Cl [2,2′,3,4′,6,6′-hexaCl-4-biphenylol] | −2.60 |  |  | 
Oc1cc(Cl)c(-c2c(Cl)cccc2Cl)c(Cl)c1Cl [2,2′,3,6,6′-pentaCl-4-biphenylol] | −1.97 |  |  | 
Clc1cc(Cl)c(-c2cc(Cl)c(Cl)cc2Cl)cc1Cl [2,2′,4,4′,5,5′-hexaCl-biphenyl] | −2.83 | −5.10 | −5.10 | 
Clc1cc(Cl)c(-c2c(Cl)cc(Cl)cc2Cl)c(Cl)c1 [2,2′,4,4′,6,6′-hexaCl-biphenyl] | −1.87 |  |  | 
Clc1ccc(-c2ccc(Cl)c(Cl)c2Cl)cc1Cl [2,3,3′,4,4′-pentaCl-biphenyl] |  | −6.15 | −6.15 | 
Clc1ccc(-c2cc(Cl)c(Cl)c(Cl)c2Cl)cc1 [2,3,4,4′,5-pentaCl-biphenyl] |  | −6.38 | −6.38 | 
Clc1ccc(-c2ccc(Cl)c(Cl)c2Cl)cc1 [2,3,4,4′-tetraCl-biphenyl] |  | −5.55 | −5.55 | 
Clc1cc(-c2ccccc2)c(Cl)c(Cl)c1Cl [2,3,4,5-tetraCl-biphenyl] |  | −4.85 | −4.85 | 
Clc1cc2c(oc3c(Cl)c(Cl)c(Cl)cc32)c(Cl)c1Cl [2,3,4,6,7,8-hexaCl-dibenzofuran] |  | −8.33 | −8.33 | 
Clc1cc2c(oc3c(Cl)cccc32)c(Cl)c1Cl [2,3,4,6-tetraCl-dibenzofuran] |  | −7.46 | −7.46 | 
Clc1cc2oc3c(Cl)c(Cl)c(Cl)cc3c2cc1Cl [2,3,4,7,8-pentaCl-dibenzofuran] |  | −8.82 | −8.82 | 
Clc1cc(Cl)c2c(c1)oc1c(Cl)c(Cl)c(Cl)cc12 [2,3,4,7,9-pentaCl-dibenzofuran] |  | −7.70 | −7.70 | 
Oc1ccc(-c2c(Cl)c(Cl)c(O)c(Cl)c2Cl)cc1 [2,3,5,6,tetraCl-4,4′-biphenyldiol] | −2.18 |  |  | 
Clc1cc2c(cc1Cl)Oc1c(ccc(Cl)c1Cl)O2 [2,3,6,7-tetraCl-dibenzodioxin] |  | −7.79 | −7.79 | 
Clc1cc(Cl)c2oc3cc(Cl)c(Cl)cc3c2c1 [2,3,6,8-tetraCldibenzofuran] |  | −7.66 | −7.66 | 
Clc1cc2c(cc1Cl)Oc1c(Cl)cccc1O2 [2,3,6-triCl-dibenzodioxin] |  | −7.66 | −7.66 | 
Clc1cc2c(cc1Cl)Oc1cc(Cl)c(Cl)cc1O2 [2,3,7,8-tetraCl-dibenzodioxin] |  | −9.00 | −9.00 | binding to the AhR (in words) [2]: strong binder
Clc1cc2oc3cc(Cl)c(Cl)cc3c2cc1Cl [2,3,7,8-tetraCl-dibenzofuran] |  | −8.60 | −8.60 | binding to the AhR (in words) [2]: strong binder
Clc1ccc2c(c1)Oc1cc(Cl)c(Cl)cc1O2 [2,3,7-triCl-dibenzodioxin] |  | −8.15 | −8.15 | 
Clc1cc(Cl)c(-c2cc(Cl)c(Cl)c(Cl)c2)cc1Cl [2,3′,4,4′,5,5′-hexaCl-biphenyl] |  | −5.80 | −5.80 | 

SMILES | Normalized log (RBA) [1, 5] | Experimental Log EC50 [2, 6] | Experimental Log EC50 [2, 7] | other results
Clc1ccc(-c2cc(Cl)c(Cl)cc2Cl)cc1Cl [2,3′,4,4′,5-pentaCl-biphenyl] |  | −6.04 | −6.04 | 
Oc1ccc(-c2c(Cl)cc(Cl)cc2Cl)cc1 [2,4,6,-triCl-4′-biphenylol] | −0.16 |  |  | 
Oc1ccc(-c2c(Cl)cccc2Cl)cc1 [2,6-dichloro-4′-biphenylol] | −1.11 |  |  | 
Clc1ccc2c(c1)Oc1cc(Cl)ccc1O2 [2,8-diCl-dibenzodioxin] |  | −6.49 | −6.49 | 
Oc1ccc(-c2ccc(O)cc2Cl)cc1 [2-Cl-4,4′-biphenyldiol] | −0.61 |  |  | 
Clc1ccc(-c2ccc(Cl)c(Cl)c2Cl)cc1Cl [2′,3′4,4′,5-pentaCl-biphenyl] |  | −5.85 | −5.85 | 
Clc1ccc(-c2cc(Cl)c(Cl)c(Cl)c2)cc1Cl [3,3′,4,4′,5-pentaCl-biphenyl] |  | −7.92 | −7.92 | 
Clc1ccc(-c2ccc(Cl)c(Cl)c2)cc1Cl [3,3′,4,4′-tetraCl-biphenyl] |  | −7.37 | −7.37 | 
CC(C)(C)c1cccc(O)c1 [3-tert-butylphenol] | −4.82 |  |  | 
C[C@]12CC[C@H]3[C@@H](CC=C4C[C@@H](O)CC[C@@]43C)[C@@H]1CC[C@@H]2O [5-Androstenediol] |  |  |  | Normalized log (RBA) [1]: −0.49
C[C@]12CC[C@@H]3c4ccc(O)cc4CC[C@H]3[C@@H]1CC(=O)[C@@H]2O [16-ketoestradiol] |  |  |  | Normalized log (RBA) [1]: −0.38
CC12CCC3c4ccc(O)cc4CCC3C1CC(Br)C2O (stereo not shown) [16a-bromoestradiol] | 1.41 |  |  | 
N[C@@H](C(=O)N[C@@H]1C(=O)N2C(C(=O)O)=C(Cl)CS[C@H]12)c1ccccc1 [Cefaclor] |  |  |  | Log(1/MIC) [3]: −.90; MIC [4]: 8
CCN1CCN(C(=O)N[C@@H](C(=O)N[C@@H]2C(=O)N3C(C(=O)O)=C(CSc4nnnn4C)CS[C@H]23)c2ccc(O)cc2)C(=O)C1=O [Cefaperazone] |  |  |  | Log(1/MIC) [3]: −1.20; MIC [4]: 16
C=CC1=C(C(=O)O)N2C(=O)[C@@H](NC(=O)/C(=N\OCC(=O)O)c3csc(N)n3)[C@H]2SC1 [Cefixime] |  |  |  | Log(1/MIC) [3]: −.90
CO[C@@]1(NC(=O)C2SC(=C(C(N)=O)C(=O)O)S2)C(=O)N2C(C(=O)O)=C(CSc3nnnn3C)CS[C@@H]21 (stereo partly shown) [Cefotetan] |  |  |  | Log(1/MIC) [3]: −1.20
COCC1=C(C(=O)O)N2C(=O)[C@@H](NC(=O)/C(=N\OC)c3csc(N)n3)[C@H]2SC1 [Cefpodoxime] |  |  |  | Log(1/MIC) [3]: −.30
CCC1=C(c2ccc(O)cc2)[C@H](C)c2cc(O)ccc21 [Indenestrol A (R)] | 1.08 |  |  | 
CCC1=C(c2ccc(O)cc2)[C@@H](C)c2cc(O)ccc21 [Indenestrol A (S)] | 2.39 |  |  | 
CCC(=O)[C@@]1(C)CC[C@H]2[C@@H]3CCC4=CC(=O)CCC4=C3CC[C@@]21C [R 5020] | −1.81 |  |  | 
O=C(c1ccc(OCCN2CCCCC2)cc1)c1c(-c2ccc(O)cc2)sc2cc(O)ccc12 [Raloxifene] | 1.34 |  |  | 
C[C@H]1CCCC(=O)CCC/C=C/c2cc(O)cc(O)c2C(=O)O1 [Zearalenone] | 0.91 |  |  | 
Clc1c(Cl)c(Cl)c2c(c1Cl)Oc1c(Cl)c(Cl)c(Cl)c(Cl)c1O2 [octaCl-dibenzodioxin] |  | −6.00 | −6.00 | 

Source: patent US7996156B2, “Methods for predicting properties of molecules” (priority 2002, dated 2011)
